Experimental data reported in patent US20120189670A1, “PHARMACEUTICAL COMPOSITIONS AND FORMULATIONS INCLUDING INHIBITORS OF THE PLECKSTRIN HOMOLOGY DOMAIN AND METHODS FOR USING SAME” (priority 2009, published 2012).
Values after ≈ are worked out from the molar mass of the structure shown. Read-outs that look alike come from different tables or passages of the source.

Legend:
pancreatic cancer cells = experiment: Cell viability assay (Table 3); details: for Cell viability (IC50): viability assay, cell line not given; for IC50: Homo sapiens, Pancreatic cancer cell, read-out: Cell viability (IC50)
[1] = target: AKT (phospho-Ser^473-AKT) in MiaPaCa-2 cells (Homo sapiens, UniProt P31749); experiment: Western blot phospho-Ser473-AKT in MiaPaCa-2 cells; details: for pAKT inhibition (IC50): MiaPaCa-2 cells
AKT (phospho-Ser^473-AKT) in MiaPaCa-2 cells, sequence (P31749 whole entry): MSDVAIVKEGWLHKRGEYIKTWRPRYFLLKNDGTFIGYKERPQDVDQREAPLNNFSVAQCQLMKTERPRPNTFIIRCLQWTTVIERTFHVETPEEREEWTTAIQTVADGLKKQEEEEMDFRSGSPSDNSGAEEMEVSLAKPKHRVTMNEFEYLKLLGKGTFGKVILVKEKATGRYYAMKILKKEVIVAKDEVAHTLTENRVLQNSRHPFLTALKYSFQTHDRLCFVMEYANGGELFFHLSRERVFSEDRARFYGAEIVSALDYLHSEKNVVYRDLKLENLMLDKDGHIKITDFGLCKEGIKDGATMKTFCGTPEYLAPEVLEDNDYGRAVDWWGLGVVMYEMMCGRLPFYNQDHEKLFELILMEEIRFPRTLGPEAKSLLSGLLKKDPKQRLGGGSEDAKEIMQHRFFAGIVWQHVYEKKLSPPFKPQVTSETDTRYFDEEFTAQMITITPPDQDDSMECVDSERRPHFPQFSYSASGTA

[2] = tested on: BxPC-3 pancreatic cell lines; experiment: MTT cell survival, BxPC-3; assay type: cell-based; details: Homo sapiens; BxPC-3, MTT
[3] = target: T1, AKT (phospho-Ser^473 AKT) in NIH3T3 cells (Mus musculus, UniProt P31750); experiment: Inhibition of phospho-Ser473 AKT in NIH3T3 cells; assay type: cell-based
T1 construct: endogenous in cells; host or cells: NIH3T3
T1 sequence (P31750 whole entry): as the sequence (P31749 whole entry) above, with S2N, A50S, T100A, K112R, E117T, K389T, G410N, H415D counted along it
Protocol: […]. […] AKT activity was measured by Western blotting using anti-phosphoSer437 AKT antibody. Downstream targets of AKT were detected also by Western blotting using specific anti-phospho antibodies and anti-actin was used as a loading control.

[4] = Cytotoxicity in HT-29 cells; assay type: cell-based, human; details: human
[5] = Metabolic stability, incubation with HT-29 cells; assay type: in vitro ADME; details: human
From the text: Compound 6 was too insoluble to obtain data.

Solubility (Table 11) = assay type: physicochemical
[6] = target: AKT (phospho-Ser^473-AKT) in BxPC-3 (Homo sapiens, UniProt P31749); experiment: Western blot phospho-Ser473-AKT in BxPC-3 cells; details: for inhibition at 10 µM: BXPC-3, read-out: % pAKT Inhibition At 10 μM
AKT (phospho-Ser^473-AKT) in BxPC-3, sequence (P31749 whole entry): as the sequence (P31749 whole entry) above

HT-29 lung cancer cells = experiment: MTT cell survival in HT-29 cells (Table 2); assay type: cell-based; details: Homo sapiens

Row | Cell viability (IC50) (pancreatic cancer cells) | inhibition at 10 µM [6] [%] | Structure (SMILES) | further results
1 | N/I | – | COc1ccc(NC(=O)c2ccccc2NC(=O)c2ccccc2C(=O)O)c(OC)c1 [Compound 442] | pAKT inhibition (IC50) [1]: N/I
2 | – | – | CCCCCCCCCCCCc1ccc(S(=O)(=O)Nc2nnc(CC)s2)cc1 [Compound 112, 4-Dodecyl-N-(5-ethyl-1,3,4-thiadiazol-2-yl)benzenesulfonamide] | IC50 [2]: 32 µM
3 | – | – | CC1=NN(C(=O)c2ccccc2)C(=O)C1/N=N/c1ccc(S(=O)(=O)Nc2ncccn2)cc1 (centres unmarked) [Compound 331] | IC50 [3]: 11 µM; IC50 [4]: 14 µM; half-life ([5]; HT-29 cell culture conditions, read-out: half lives under cell culture conditions): 1 to 2 h; half-life ([5]; incubating with HT-29 cells at maximum DMEM concentration at 37° C., read-out: Metabolic half life): 1.03 h; solubility (Solubility (Table 11)): 28.3 µM (≈ 13.1 µg/mL)
4 | – | 23 | Nc1ccc(S(=O)(=O)Nc2nnc(CC(=O)O)s2)cc1 [Compound 117, 2-(5-(4-Aminophenylsulfonamido)-1,3,4-thiadiazol-2-yl)acetic Acid] | –
5 | – | – | CCCCCCCCCCCCc1ccc(S(=O)(=O)Nc2nnc(CCCCCN(C)c3ccc([N+](=O)[O-])c4nonc34)s2)cc1 [Compound 137, 4-Dodecyl-N-(5-(5-(methyl(7-nitrobenzo[c][1,2,5]oxadiazol-4-yl)amino)pentyl)-1,3,4-thiadiazol-2-yl)benzenesulfonamide] | AKT phosphorylation inhibition (qualitative) ([6]; BxPC-3 cells): inhibited AKT phosphorylation in a fashion similar to 104
6 | N/I | – | O=C(Nc1ccccc1SCCS(=O)(=O)c1ccc(Cl)cc1)c1ccccc1Cl [Compound 436] | pAKT inhibition (IC50) [1]: N/I
7 | N/I | – | O=C(Nc1ccccc1)c1ccccc1NC(=O)c1ccccc1C(=O)O [Compound 439] | –
8 | N/I | – | COc1cc(NS(=O)(=O)c2ccc(NC(=O)C(C)(C)C)cc2)nc(OC)n1 [Compound 452] | pAKT inhibition (IC50) [1]: N/I
9 | – | 10 | CCCCCCCCc1ccc(S(=O)(=O)Nc2nncs2)cc1 [Compound 153, 4-Octyl-N-(1,3,4-thiadiazol-2-yl)benzenesulfonamide] | –
10 | N/I | – | O=C(O)c1ccccc1C(=O)Nc1ccccc1N1CCOCC1 [Compound 438] | pAKT inhibition (IC50) [1]: N/I
11 | – | 36 | CCCCCCCCCCCCc1ccc(S(=O)(=O)Nc2nnc(C(C)(C)C)s2)cc1 [Compound 116, N-(5-tert-Butyl-1,3,4-thiadiazol-2-yl)-4-dodecylbenzenesulfonamide] | IC50 [2]: 45 µM
12 | N/I | – | Nc1ccc(S(=O)(=O)Nc2ccc(S(=O)(=O)Nc3nnc(S(N)(=O)=O)s3)cc2)cc1 [Compound 456] | –
13 | – | < 10 | CC(=O)Nc1ccc(S(=O)(=O)Nc2nnc(CO)s2)cc1 [Compound 126, N-(4-(N-(5-(hydroxymethyl)-1,3,4-thiadiazol-2-yl)sulfamoyl)phenyl)acetamide] | –
14 | – | – | CCCCCCCCCCCCc1ccc(S(=O)(=O)Nc2nnc(CO)s2)cc1 [Compound 128, 4-Dodecyl-N-(5-(hydroxymethyl)-1,4-thiadiazol-2-yl)benzenesulfonamide] | IC50 [2]: 37 µM
15 | – | – | CCCCCCCCCCCCc1ccc(S(=O)(=O)Nc2nnc(CC(=O)O)s2)cc1 [Compound 120, 2-(5-(4-Dodecylphenylsulfonamido)-1,3,4-thiadiazol-2-yl)acetic Acid] | IC50 [2]: > 100 µM
16 | N/I | – | COc1cc(NS(=O)(=O)c2ccc(Nc3ccco3)cc2)nc(OC)n1 [Compound 444] | –
17 | – | < 10 | CCCCCCc1ccc(S(=O)(=O)Nc2nncs2)cc1 [Compound 154, 4-Hexyl-N-(1,3,4-thiadiazol-2-yl)benzenesulfonamide] | –
18 | N/I | – | CC(=O)Nc1ccc(NS(=O)(=O)c2c(C)noc2C)cc1 [Compound 451] | pAKT inhibition (IC50) [1]: N/I
19 | – | – | Cc1noc(C)c1S(=O)(=O)Nc1ccc(Oc2c(Cl)cccc2Cl)nc1 [Compound 448] | IC50 (pancreatic cancer cells): 80 µM; pAKT inhibition (IC50) [1]: N/I
20 | N/I | – | Cc1onc(-c2ccccc2)c1C(=O)Nc1ccc(S(=O)(=O)Nc2ncccn2)cc1 [Compound 453] | pAKT inhibition (IC50) [1]: N/I
21 | – | 16 | CCc1nnc(NS(=O)(=O)c2ccc(N)cc2)s1 [Compound 109, 4-Amino-N-(5-ethyl-1,3,4-thiadiazol-2-yl)benzenesulfonamide] | –
22 | – | < 10 | CC(=O)Nc1ccc(S(=O)(=O)Nc2nnc(C)s2)cc1 [Compound 106, N-(4-(N-(5-Methyl-1,3,4-thiadizol-2-yl)sulfamoyl)phenyl)acetamide] | –
23 | – | < 10 | CCCCc1ccc(S(=O)(=O)Nc2nncs2)cc1 [Compound 155, 4-Butyl-N-(1,3,4-thiadiazol-2-yl)benzenesulfonamide] | –

Row | Cell viability (IC50) (pancreatic cancer cells) | inhibition at 10 µM [6] [%] | Structure (SMILES) | further results
24 | – | – | NS(=O)(=O)c1nnc(NS(=O)(=O)c2cccc3cccnc23)s1 [Compound 345] | IC50 (HT-29 lung cancer cells): > 100 µM
25 | – | – | COc1cc(NS(=O)(=O)c2ccc(NS(=O)(=O)c3c(C)noc3C)cc2)nc(OC)n1 [Compound 415] | IC50 (HT-29 lung cancer cells): 3.1 µM
26 | – | < 10 | CCOC(=O)c1nnc(NS(=O)(=O)c2ccc(NC(C)=O)cc2)s1 [Compound 122E, Ethyl 5-(4-Acetamidophenylsulfonamido)-1,3,4-thiadiazole-2-carboxylate] | –
27 | – | 55 | CCOC(=O)Cc1nnc(NS(=O)(=O)c2ccc(NC(C)=O)cc2)s1 [Compound 118E, Ethyl 2-(5-(4-Acetamidophenylsulfonamido)-1,3,4-thiadiazol-2-yl)acetate] | –
28 | – | 20 | CC(=O)Nc1ccc(S(=O)(=O)Nc2nnc(C(C)(C)C)s2)cc1 [Compound 114, N-(4-(N-(5-tert-Butyl-1,3,4-thiadiazol-2-yl)sulfamoyl)phenyl)acetamide] | –
29 | N/I | – | COc1cc(NS(=O)(=O)c2ccc(C(C)=O)cc2)nc(OC)n1 [Compound 450] | –
30 | – | 10 | Nc1ccc(S(=O)(=O)Nc2nnc(CO)s2)cc1 [Compound 125, 4-Amino-N-(5-(hydroxymethyl)-1,3,4-thiadiazol-2-yl)benzenesulfonamide] | –
31 | – | – | CCCCCCCCCCCCc1ccc(S(=O)(=O)Nc2nnc(CC(=O)OCC)s2)cc1 [Compound 120E, Ethyl 2-(5-(4-Dodecylphenylsulfonamido)-1,3,4-thiadiazol-2-yl)acetate] | IC50 [2]: 70 µM
32 | N/I | – | Cc1cc(C)nc(NS(=O)(=O)c2ccc(NC(=O)c3ccoc3C)cc2)n1 [Compound 446] | pAKT inhibition (IC50) [1]: N/I
33 | – | 18 | Nc1ccc(S(=O)(=O)Nc2nnc(S(N)(=O)=O)s2)cc1 [Compound 131, 5-(4-Aminophenylsulfonamido)-1,3,4-thiadiazole-2-sulfonamide] | –
34 | – | – | COc1cccc(OC)c1C(=O)Nc1ccc(S(=O)(=O)Nc2ccccn2)cc1 [Compound 449] | IC50 (pancreatic cancer cells): 190 µM; pAKT inhibition (IC50) [1]: N/I
35 | – | – | CCCCCCCCCCCCc1ccc(S(=O)(=O)Nc2nnc(C(=O)OCC)s2)cc1 [Compound 124E, Ethyl 5-(4-dodecylphenylsulfonamido)-1,3,4-thiadiazole-2-carboxylate] | IC50 [2]: 36 µM
36 | – | 11 | Cc1nnc(NS(=O)(=O)c2ccc(N)cc2)s1 [Compound 105, 4-Amino-N-(5-methyl-1,3,4-thiadiazol-2-yl)benzenesulfonamide] | –
37 | N/I | – | COc1cc(NS(=O)(=O)c2ccc(NC(=O)c3ccco3)cc2)nc(OC)n1 [Compound 445] | –
38 | – | 45 | CCc1nnc(NS(=O)(=O)c2ccc(NC(C)=O)cc2)s1 [Compound 110, N-(4-(N-(5-Ethyl-1,3,4-thiadizol-2-yl)sulfamoyl)phenyl)acetamide] | –
39 | – | 13 | CC(C)(C)c1nnc(NS(=O)(=O)c2ccc(N)cc2)s1 [Compound 113, 4-Amino-N-(5-tert-butyl-1,3,4-thiadiazol-2-yl)benzenesulfonamide] | –
40 | N/I | – | Cc1cc(C)nc(NS(=O)(=O)c2ccc(NC(=O)c3ccoc3C)cc2)n1 [Compound 447] | pAKT inhibition (IC50) [1]: N/I
41 | – | – | COc1cc(NS(=O)(=O)c2ccc(Nc3ccco3)cc2)nc(OC)n1 [Compound 454] | pAKT inhibition (IC50) [1]: N/I
42 | – | 19 | CC(=O)Nc1ccc(S(=O)(=O)Nc2nnc(CC(=O)O)s2)cc1 [Compound 118, 2-(5-(4-Acetamidophenylsulfonamido)-1,3,4-thiadiazol-2-yl)acetic Acid] | –
43 | N/I | – | CCOc1ccccc1C(=O)Nc1ccccc1C(=O)O [Compound 441] | IC50 [1]: 25 µM
44 | – | 64 | CCCCCCCCCCCCc1ccc(S(=O)(=O)Nc2nnc(C)s2)cc1 [Compound 108, 4-Dodecyl-N-(5-methyl-1,3,4-thiadiazol-2-yl)benzenesulfonamide] | IC50 [2]: 61 µM
45 | – | < 10 | CC(=O)Nc1ccc(S(=O)(=O)Nc2nnc(S(N)(=O)=O)s2)cc1 [Compound 138, N-(4-(N-(5-Sulfamoyl-1,3,4-thiadiazol-2-yl)sulfamoyl)phenyl)acetamide] | –
46 | N/I | – | O=S(=O)(Nc1nccs1)c1ccc2ccccc2c1 [Compound 437] | pAKT inhibition (IC50) [1]: N/I

Row | Structure (SMILES) | Cell viability (IC50) (pancreatic cancer cells) | inhibition at 10 µM [6] [%] | further results
47 | Cc1nnc(NS(=O)(=O)c2ccc(NS(=O)(=O)c3ccc4ccccc4c3)cc2)s1 [Compound 455] | did not exhibit cytotoxicity and N/I | – | –
